Assay results from ChEMBL document CHEMBL1201862, “PubChem BioAssay data set” (2004).
Calls of active or inactive are those of the source.

How the values were obtained:
[1] = A549 cell cytotoxicity, dose response, cytotoxicity control, plate reader, cherry-pick, antagonist series (AID 743412); assay type: functional, cell-based
[2] = molecular target: Intestinal-type alkaline phosphatase (Mus musculus, UniProt P24822); assay: PubChem AID 488785; assay type: functional
[3] = LGR2 antagonists, dose response, cell-based, HEK293, CRE-luciferase reporter, cherry pick, set 2 (AID 743343); assay type: functional;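 also: transfected cells were stimulated with diluted bursicon conditioned medium after compound addition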
[4] = MC4R antagonists, dose response, counter-screen for LGR2 antagonist project, cell-based, plate reader, cherry pick (AID 743444); assay type: functional;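 also: transfected HEK 293 cells stimulated with alpha-MSH peptide; potency of inhibitors of the alpha-MSH evoked signal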
[5] = HEK293 cell cytotoxicity, dose response, cytotoxicity control, plate reader, cherry-picked samples (AID 743446); assay type: functional, cell-based
[6] = molecular target: T1, Ubiquitin-conjugating enzyme E2 N (Homo sapiens, UniProt P61088); assay type: functional;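 also: Dose-response confirmation in a TR-FRET assay detecting UBC13-driven polyubiquitin chain formation, inhibition measured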
T1 sequence (P61088 whole entry): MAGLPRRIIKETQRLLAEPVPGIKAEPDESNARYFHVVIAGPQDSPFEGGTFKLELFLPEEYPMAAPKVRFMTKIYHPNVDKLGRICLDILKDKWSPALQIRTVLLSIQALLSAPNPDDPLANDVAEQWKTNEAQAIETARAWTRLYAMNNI

[7] = Luminescence Cell-Based Dose Retest to Confirm Inhibitors of Cancer Stem Cells. [Related pubchem assays (depositor defined):AID2717, AID2721]; assay type: functional; conditions: Homo sapiens
[8] = molecular target: T2, Alkaline phosphatase, tissue-nonspecific isozyme (Homo sapiens, UniProt P05186); assay: TNAP enzyme inhibition by screening hits, dose response, selectivity assay for mouse IAP inhibitor project, biochemical, human TNAP, uHTS hits (AID 488906); assay type: functional
T2 sequence (P05186 whole entry): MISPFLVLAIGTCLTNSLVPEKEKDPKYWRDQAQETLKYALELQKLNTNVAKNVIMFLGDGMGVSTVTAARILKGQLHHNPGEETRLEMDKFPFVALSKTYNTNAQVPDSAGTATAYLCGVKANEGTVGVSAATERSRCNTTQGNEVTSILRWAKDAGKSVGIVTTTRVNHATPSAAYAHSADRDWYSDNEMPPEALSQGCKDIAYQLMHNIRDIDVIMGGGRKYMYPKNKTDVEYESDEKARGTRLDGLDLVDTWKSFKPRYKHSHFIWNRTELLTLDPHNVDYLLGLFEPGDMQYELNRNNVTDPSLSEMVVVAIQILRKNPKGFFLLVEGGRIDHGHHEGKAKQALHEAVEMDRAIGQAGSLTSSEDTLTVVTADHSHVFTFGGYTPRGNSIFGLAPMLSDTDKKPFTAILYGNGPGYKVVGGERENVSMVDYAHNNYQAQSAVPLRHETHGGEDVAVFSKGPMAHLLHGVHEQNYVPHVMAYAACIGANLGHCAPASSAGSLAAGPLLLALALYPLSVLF

[9] = HepG2 cell cytotoxicity, dose response, cytotoxicity control, plate reader, cherry-pick, antagonist series (AID 743416); assay type: functional, cell-based
[10] = molecular target: T3, Endoribonuclease toxin MazF (Escherichia coli K-12, UniProt P0AE70); assay: MazF toxin RNase activators, dose response, biochemical, fluorescence, single-stranded RNA substrate, uHTS hits (AID 588481); assay type: functional
T3 sequence (P0AE70 whole entry): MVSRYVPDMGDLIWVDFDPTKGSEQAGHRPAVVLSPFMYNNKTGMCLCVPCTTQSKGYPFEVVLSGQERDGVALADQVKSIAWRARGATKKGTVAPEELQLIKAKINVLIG

[11] = molecular target: Intestinal-type alkaline phosphatase (Homo sapiens, UniProt P09923); assay: inhibition of human intestinal alkaline phosphatase – biochemical, dose response (AID 488876); assay type: functional
Sequence of Intestinal-type alkaline phosphatase (Homo sapiens, UniProt P09923) (P09923 whole entry): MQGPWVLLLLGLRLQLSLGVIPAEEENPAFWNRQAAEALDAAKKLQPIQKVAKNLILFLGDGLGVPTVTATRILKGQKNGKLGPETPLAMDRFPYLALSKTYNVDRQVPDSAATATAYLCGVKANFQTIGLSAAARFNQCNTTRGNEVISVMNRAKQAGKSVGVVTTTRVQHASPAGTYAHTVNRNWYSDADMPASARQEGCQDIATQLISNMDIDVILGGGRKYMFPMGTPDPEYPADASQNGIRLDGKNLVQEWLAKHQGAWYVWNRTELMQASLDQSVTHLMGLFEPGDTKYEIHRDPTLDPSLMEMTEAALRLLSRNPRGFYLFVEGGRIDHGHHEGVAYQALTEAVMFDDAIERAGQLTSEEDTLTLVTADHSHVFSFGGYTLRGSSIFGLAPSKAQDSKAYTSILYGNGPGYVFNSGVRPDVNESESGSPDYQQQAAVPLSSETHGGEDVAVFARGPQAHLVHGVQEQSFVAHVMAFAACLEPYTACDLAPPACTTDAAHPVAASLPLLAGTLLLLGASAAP

[12] = molecular target: T3, Endoribonuclease toxin MazF; assay: fluorescent RNA oligo signal without MazF, dose response, counter-screen for MazEF activator project, biochemical, fluorescence, single-stranded RNase substrate (AID 588502); assay type: functional
[13] = molecular target: SUMO E1/E2 (Homo sapiens, UniProt P63279+Q9UBE0+Q9UBT2); assay: SAR analysis of SUMOylation using HTRF in an in-Vitro dose response assay. [Related pubchem assays (depositor defined):AID2006, AID2011, AID2018, AID2069, AID2658]; assay type: functional
Sequence of SUMO E1/E2 (Q9UBE0 whole entry): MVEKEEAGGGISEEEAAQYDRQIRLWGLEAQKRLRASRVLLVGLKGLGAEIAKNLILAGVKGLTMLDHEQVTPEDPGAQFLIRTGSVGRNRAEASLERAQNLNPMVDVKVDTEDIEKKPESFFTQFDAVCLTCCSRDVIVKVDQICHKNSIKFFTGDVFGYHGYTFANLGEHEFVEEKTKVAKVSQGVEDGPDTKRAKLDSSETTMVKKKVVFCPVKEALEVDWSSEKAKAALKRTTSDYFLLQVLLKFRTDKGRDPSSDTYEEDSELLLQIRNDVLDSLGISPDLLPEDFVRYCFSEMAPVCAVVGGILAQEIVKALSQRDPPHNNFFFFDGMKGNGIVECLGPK
Sequence of SUMO E1/E2 (Q9UBT2 whole entry): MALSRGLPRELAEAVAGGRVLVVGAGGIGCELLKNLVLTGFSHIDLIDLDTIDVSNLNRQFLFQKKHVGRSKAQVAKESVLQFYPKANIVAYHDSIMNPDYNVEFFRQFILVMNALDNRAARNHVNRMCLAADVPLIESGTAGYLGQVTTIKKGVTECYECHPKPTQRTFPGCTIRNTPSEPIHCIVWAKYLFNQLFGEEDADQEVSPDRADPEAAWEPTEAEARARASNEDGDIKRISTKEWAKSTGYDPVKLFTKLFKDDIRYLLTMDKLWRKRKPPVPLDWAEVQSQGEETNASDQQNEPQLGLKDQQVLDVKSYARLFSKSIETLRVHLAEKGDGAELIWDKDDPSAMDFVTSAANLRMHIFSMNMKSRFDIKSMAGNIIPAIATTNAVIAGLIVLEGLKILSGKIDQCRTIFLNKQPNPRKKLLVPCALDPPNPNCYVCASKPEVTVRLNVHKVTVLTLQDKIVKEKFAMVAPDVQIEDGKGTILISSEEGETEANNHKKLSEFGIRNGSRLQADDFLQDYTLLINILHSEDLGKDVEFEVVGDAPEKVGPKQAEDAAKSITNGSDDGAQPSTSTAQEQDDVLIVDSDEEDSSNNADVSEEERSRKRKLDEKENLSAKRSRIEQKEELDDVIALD
Sequence of SUMO E1/E2 (P63279 whole entry): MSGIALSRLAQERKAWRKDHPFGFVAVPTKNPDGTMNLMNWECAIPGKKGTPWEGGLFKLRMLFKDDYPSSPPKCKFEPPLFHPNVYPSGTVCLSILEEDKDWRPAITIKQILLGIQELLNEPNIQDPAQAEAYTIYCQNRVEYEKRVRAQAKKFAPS

[14] = molecular target: Nonstructural protein 1 (Influenza A virus, UniProt Q194T2); assay type: functional, Influenza A virus (A/California/07/2009(H1N1))
Sequence of Nonstructural protein 1 (Q194T2 whole entry): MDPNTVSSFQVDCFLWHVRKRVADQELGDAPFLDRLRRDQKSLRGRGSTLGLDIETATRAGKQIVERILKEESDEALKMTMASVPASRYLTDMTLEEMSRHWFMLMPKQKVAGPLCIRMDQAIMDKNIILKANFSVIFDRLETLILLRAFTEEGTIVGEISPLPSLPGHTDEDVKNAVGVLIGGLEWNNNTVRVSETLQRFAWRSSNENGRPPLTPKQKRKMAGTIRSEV

[15] = molecular target: Heat shock protein HSP 90-alpha (Homo sapiens, UniProt P07900); assay type: functional, organism-based
[16] = molecular target: T4, Hexokinase-1 (Homo sapiens, UniProt P19367); assay: hexokinase 1 activators, dose response, selectivity assay for HKDC1 activator project, biochemical (AID 504762); assay type: functional
T4 sequence (P19367 whole entry): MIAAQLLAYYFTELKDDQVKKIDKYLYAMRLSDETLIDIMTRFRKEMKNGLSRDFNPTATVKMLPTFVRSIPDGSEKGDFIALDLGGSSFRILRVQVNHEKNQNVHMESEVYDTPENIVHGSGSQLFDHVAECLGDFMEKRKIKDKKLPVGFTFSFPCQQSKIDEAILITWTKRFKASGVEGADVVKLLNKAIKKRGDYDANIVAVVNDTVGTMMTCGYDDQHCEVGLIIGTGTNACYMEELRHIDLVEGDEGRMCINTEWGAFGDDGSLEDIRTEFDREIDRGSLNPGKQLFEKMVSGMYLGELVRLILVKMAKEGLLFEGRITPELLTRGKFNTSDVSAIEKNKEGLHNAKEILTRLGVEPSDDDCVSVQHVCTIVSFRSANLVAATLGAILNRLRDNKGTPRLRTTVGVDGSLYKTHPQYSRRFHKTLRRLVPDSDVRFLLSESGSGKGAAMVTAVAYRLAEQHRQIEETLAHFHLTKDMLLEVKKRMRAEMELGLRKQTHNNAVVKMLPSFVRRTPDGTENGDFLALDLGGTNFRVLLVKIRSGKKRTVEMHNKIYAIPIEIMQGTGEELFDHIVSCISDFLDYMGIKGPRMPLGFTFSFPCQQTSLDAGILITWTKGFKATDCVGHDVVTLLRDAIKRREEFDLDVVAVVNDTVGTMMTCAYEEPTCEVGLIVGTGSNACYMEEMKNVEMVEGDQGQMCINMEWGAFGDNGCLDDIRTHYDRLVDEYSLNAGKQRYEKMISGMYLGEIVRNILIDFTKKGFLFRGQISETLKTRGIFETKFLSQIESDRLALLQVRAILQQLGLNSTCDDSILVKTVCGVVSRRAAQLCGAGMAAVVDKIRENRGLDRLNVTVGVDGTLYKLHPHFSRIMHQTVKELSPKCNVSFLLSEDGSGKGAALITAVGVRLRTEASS

[17] = molecular target: T5, Hexokinase HKDC1 (Homo sapiens, UniProt Q2TB90); assay: HKDC1 hexokinase activators, dose response, biochemical, W721R variant (AID 504730); assay type: functional
T5 sequence (Q2TB90 whole entry): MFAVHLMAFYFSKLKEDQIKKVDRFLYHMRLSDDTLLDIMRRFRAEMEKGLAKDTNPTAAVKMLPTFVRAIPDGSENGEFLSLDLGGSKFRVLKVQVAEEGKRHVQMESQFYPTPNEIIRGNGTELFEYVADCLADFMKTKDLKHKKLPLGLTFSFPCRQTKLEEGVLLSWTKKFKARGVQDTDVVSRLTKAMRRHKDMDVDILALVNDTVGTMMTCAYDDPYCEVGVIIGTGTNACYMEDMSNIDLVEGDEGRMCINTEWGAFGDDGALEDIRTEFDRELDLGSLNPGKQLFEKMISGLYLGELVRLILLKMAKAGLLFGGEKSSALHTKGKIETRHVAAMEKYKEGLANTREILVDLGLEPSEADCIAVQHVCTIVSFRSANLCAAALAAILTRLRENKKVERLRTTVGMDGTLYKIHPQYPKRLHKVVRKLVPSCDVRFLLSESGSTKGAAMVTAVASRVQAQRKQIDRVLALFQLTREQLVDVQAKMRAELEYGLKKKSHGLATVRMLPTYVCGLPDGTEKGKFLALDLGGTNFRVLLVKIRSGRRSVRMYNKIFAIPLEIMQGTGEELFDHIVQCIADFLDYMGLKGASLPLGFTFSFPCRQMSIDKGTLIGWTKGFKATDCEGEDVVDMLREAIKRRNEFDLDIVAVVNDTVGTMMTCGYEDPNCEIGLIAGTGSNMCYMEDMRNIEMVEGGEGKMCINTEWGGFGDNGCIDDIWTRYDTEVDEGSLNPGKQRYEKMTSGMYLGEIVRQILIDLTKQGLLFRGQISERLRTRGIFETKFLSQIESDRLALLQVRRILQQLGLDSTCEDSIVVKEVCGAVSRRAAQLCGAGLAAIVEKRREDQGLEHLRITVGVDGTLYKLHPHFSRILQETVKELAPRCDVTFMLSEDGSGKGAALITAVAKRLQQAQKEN

[18] = molecular target: T2, Alkaline phosphatase, tissue-nonspecific isozyme; assay: human TNAP enzyme inhibitors, SAR follow-up, biochemical, luminescent, dose response (AID 1056)
[19] = molecular target: Glyceraldehyde-3-phosphate dehydrogenase (Homo sapiens, UniProt P04406)
Sequence of Glyceraldehyde-3-phosphate dehydrogenase (P04406 whole entry): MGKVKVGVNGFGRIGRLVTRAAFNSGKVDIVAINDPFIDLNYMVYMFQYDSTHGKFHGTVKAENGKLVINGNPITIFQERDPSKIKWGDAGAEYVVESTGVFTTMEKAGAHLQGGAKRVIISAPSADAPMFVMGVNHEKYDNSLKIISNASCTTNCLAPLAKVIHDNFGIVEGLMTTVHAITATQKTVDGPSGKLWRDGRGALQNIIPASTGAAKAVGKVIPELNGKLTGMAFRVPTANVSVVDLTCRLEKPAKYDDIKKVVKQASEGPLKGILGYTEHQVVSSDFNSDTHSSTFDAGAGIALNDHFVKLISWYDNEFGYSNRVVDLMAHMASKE

[20] = inhibitors of intracellular T. cruzi replication, confirmation, NIH3T3 host cells, beta-gal luminescence (AID 2044); assay type: functional, cell-based;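 also: intracellular parasites grown in NIH/3T3 mouse fibroblasts as host cells; luminescent beta-galactosidase reporter signal from transgenic T. cruzi replicating inside host cells; inhibitors lower the luminescence signal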
[21] = cytotoxicity in HMLE control line with eGFP shRNA, dose response, counter-screen for HMLE_sh_ECad selective toxicity project, cell-based, HMLE_sh_eGFP, luminescence (AID 463074); assay type: functional, Homo sapiens;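 also: HMLE human mammary epithelial cells expressing control shRNA against eGFP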
[22] = cytotoxicity toward NIH3T3 fibroblasts, dose response, counter-screen, cell-based, ATP luminescence, mouse fibroblasts (AID 2010); assay type: functional;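 also: cells exposed to compound for about 90 hours before reading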
[23] = molecular target: T6, Lysine-specific demethylase 4C (Homo sapiens, UniProt Q9H3R0); assay: GASC-1 (JMJD2C) histone demethylase inhibitors, dose response, biochemical, DELFIA europium, cherry-picked samples (AID 488835); assay type: functional
T6 sequence (Q9H3R0 whole entry): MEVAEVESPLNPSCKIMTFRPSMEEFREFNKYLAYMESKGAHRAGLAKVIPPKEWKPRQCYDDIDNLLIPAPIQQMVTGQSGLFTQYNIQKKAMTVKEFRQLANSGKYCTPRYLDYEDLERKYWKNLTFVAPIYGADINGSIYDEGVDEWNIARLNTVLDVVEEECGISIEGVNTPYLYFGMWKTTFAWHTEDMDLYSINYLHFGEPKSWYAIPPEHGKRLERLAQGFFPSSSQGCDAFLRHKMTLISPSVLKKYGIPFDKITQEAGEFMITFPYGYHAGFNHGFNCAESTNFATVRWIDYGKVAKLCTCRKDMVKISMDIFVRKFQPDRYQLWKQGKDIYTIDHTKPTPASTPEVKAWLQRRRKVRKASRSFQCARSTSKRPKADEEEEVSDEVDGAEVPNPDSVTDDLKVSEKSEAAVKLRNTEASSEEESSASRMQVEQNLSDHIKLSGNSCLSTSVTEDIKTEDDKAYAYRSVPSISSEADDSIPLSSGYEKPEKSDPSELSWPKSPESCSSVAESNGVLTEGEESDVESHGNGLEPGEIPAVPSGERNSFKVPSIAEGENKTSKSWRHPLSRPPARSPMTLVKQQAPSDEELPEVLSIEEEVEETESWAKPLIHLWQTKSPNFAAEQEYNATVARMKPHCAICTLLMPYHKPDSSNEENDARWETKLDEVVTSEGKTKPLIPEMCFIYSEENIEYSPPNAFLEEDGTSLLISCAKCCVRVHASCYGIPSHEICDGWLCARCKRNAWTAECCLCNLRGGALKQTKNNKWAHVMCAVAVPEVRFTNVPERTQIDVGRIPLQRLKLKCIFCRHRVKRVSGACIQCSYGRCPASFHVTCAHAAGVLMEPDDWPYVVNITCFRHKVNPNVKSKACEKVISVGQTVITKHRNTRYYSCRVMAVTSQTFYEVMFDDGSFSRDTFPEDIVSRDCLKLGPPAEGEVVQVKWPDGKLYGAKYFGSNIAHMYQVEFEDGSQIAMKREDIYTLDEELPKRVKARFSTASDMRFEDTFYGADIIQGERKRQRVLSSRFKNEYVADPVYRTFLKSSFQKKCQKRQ

[24] = system: H9c2; assay: cells; assay type: functional, cell-based; conditions: Rattus norvegicus, H9c2, Myocardium;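 also: confirmatory concentration-response retest of ultra-high-throughput screening hits for modulation of myocardial damage; cell death induced by hydrogen peroxide oxidative stress; compound pretreatment for 60 min then peroxide exposure for 2 h; potency is for protecting the cells against peroxide damage rather than for killing them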

Sequence of Intestinal-type alkaline phosphatase (Mus musculus, UniProt P24822) (P24822 whole entry): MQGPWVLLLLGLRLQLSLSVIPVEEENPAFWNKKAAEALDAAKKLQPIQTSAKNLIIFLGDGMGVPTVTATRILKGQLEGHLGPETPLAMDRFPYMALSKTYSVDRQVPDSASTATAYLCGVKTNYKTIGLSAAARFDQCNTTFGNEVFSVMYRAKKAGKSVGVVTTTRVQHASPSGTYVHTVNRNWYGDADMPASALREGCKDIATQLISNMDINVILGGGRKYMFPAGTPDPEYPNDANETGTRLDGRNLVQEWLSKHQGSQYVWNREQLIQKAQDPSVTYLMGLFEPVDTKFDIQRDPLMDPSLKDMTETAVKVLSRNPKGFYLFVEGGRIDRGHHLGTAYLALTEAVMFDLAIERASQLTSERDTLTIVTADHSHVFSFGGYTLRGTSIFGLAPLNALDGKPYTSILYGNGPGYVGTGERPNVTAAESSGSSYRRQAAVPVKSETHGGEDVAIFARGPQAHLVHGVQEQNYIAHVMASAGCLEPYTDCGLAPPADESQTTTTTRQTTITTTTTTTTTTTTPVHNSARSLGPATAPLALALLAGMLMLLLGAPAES

O=C(Nc1ccc(Cl)c(C(F)(F)F)c1)NC1CC2CCCC(C1)N2Cc1ccccc1 (configuration not stated)
AC50 [1]: 11.4 µM (active)
IC50 [2]: 11.2 µM (active)
AC50 [3]: 39 µM (active)
AC50 [4]: 33.5 µM (active)
AC50 [5]: 29.6 µM (active)
IC50 [6]: > 20 µM (inactive)
AC50 [7]: 6.55 µM (active)
IC50 [8]: > 100 µM (inactive)
AC50 [9]: 12.6 µM (active)
EC50 [10]: > 99 µM (inactive)
IC50 [11]: > 100 µM (inactive)
EC50 [12]: > 99 µM (inactive)

O=C(O)c1ccc2c(c1)C1C=CCC1C(c1ccccc1)N2 (configuration not stated)
IC50 [13]: > 100 µM (inactive)

Cc1ccc(NC(=S)NCc2ccccc2)cc1S(=O)(=O)N1CCCCC1
IC50 [2]: 1.4 µM (active)
IC50 [8]: > 100 µM (inactive)
IC50 [11]: > 100 µM (inactive)

CC(=NNC(=S)N1CC2CCC(CC2)C1)c1ccncn1
IC50 [14]: 3.98 µM (active)
AC50 [15]: 3.03 µM (active)
EC50 [16]: > 80 µM (inactive)
EC50 [17]: 13.3 µM (active)

O=C(O)c1cc(-c2ccc(F)cc2)n[nH]1
IC50 [18]: 4.74 µM (active)
IC50 [19]: > 100 µM (not active)

CCOc1ccc(OCC)c(S(=O)(=O)Nc2cccnc2)c1
IC50 [18]: 4.44 µM (active)
IC50 [19]: > 100 µM (not active)

C/C(=N\OCc1nc2ccccc2c(=O)n1/N=C/c1cc(Br)ccc1O)c1ccccc1
IC50 [13]: 14.7 µM (active)

COc1ccc(C(=O)CCN2CCN(c3ccccc3F)CC2)cc1
AC50 [7]: 17.2 µM (active)
EC50 [20]: 2.19 µM (active)
AC50 [21]: 35.3 µM (active)
EC50 [22]: 7.83 µM (active)

CN1C(=O)C(=Cc2ccc(N3CCCCCC3)cc2)C(=O)N(C)C1=O
AC50 [23]: 13.1 µM (active)

COc1ccc(-c2nn3c(-c4ccco4)nnc3s2)cc1OC
IC50 [24]: 11.2 µM (active)
AC50 [23]: 10.3 µM (active)
